For this assay, the target named is T1, IκBα ubiquitinating enzyme (SCF complex: ROC1, Cullin1, Skp1, His-TrCP1; with E1, UbcH5b) (Homo sapiens, UniProt P62877+P63208+Q13616+Q9Y297).
T1 construct: His (polyhistidine); made in house; host or cells: insect cells (baculovirus) for the SCF complex and His-E1; E. coli for His-UBCH5b
As to the kind of experiment: Measurement of ubiquitinating enzyme activity (IκBα ubiquitination, time-resolved fluorescence with Eu(K)-labeled ubiquitin and XL665-labeled anti-GST antibody). The format is biochemical. The note with it: enzyme activity inhibition test, method (1), Table 5; read-out: EVALUATION
On the procedure:
Method 1: Measurement of ubiquitinating enzyme activity
A recombinant vector His-UBCH5b containing a polyhistidine tag (His) and UBCH5b was prepared. E. coli was transformed with the vector, the protein was expressed, and affinity purification was carried out using Ni-NTA agarose (Qiagen). Four types of recombinant baculoviruses (ROC1, Cullin1, Skp1, and His-TrCP1) were prepared for the SCF complex protein, insect cells were infected in quadruplicate for expression, and affinity purification was carried out using Ni-NTA agarose. Recombinant baculoviruses His-IKKβ, His-E1 were prepared. The insect cells were infected with each of those for expression, and affinity purification was carried out using Ni-NTA agarose. A recombinant vector GST-IκBα was prepared by fusing glutathione-S-transferase tag (GST) and IκBα, E. coli was transformed with the vector for the protein expression, and affinity purification was carried out using glutathione sepharose (Amersham Biosciences). Genetic transformants were prepared by PCR amplification followed by recombination, all of which were based on published human-derived sequences.
Phosphorylation reaction of IκBα was performed by incubating the above-mentioned assay buffer (50 mM Tris-HCl (pH7.4), 2 mM ATP, 5 mM MgCl2, 0.5 mM DTT, 0.1% BSA) containing IκBα and IKKβ at room temperature for 1 hour. Ubiquitination reactions were carried out as follows. Compound samples at various concentrations, ubiquitin, Eu (K)-labeled ubiquitin, E1, UbcH5b, and SCF complex were added to phosphorylated IκBα, and then this was incubated at room temperature for 30 minutes. The reaction was terminated by adding EDTA, the above-mentioned revelation buffer (100 mM phosphate buffer (pH7.0), 0.5 M KF, 0.1% BSA) containing XL665-labeled anti-GST antibody was added and this was left to stand at room temperature for 2 hours. Measurements were made using ARVO-HTS (Perkin Elmer). The ratio of fluorescence intensities at 620 nm and 665 nm (Em 665 nm/Em 620 nm x 10,000) with excitation light at 337 nm was measured.
The ubiquitination level without the addition of a compound sample was used as the control value, and the level in the absence of SCF complex was used as the blank value for the assays. Inhibitory activities of the compounds were indicated as % inhibition = 100 - (value with a compound sample added - blank value) / (control value - blank value) x 100. IC50 was indicated as the concentration of the compound showing 50% inhibition. Eu (K)-labeled ubiquitin, XL665-labeled anti-GST antibody, and XL665-labeled anti-His antibody were purchased from CIS bio international. Costar solid black plates (96 wells) were used for the assays.

T1 sequence (Q9Y297 whole entry): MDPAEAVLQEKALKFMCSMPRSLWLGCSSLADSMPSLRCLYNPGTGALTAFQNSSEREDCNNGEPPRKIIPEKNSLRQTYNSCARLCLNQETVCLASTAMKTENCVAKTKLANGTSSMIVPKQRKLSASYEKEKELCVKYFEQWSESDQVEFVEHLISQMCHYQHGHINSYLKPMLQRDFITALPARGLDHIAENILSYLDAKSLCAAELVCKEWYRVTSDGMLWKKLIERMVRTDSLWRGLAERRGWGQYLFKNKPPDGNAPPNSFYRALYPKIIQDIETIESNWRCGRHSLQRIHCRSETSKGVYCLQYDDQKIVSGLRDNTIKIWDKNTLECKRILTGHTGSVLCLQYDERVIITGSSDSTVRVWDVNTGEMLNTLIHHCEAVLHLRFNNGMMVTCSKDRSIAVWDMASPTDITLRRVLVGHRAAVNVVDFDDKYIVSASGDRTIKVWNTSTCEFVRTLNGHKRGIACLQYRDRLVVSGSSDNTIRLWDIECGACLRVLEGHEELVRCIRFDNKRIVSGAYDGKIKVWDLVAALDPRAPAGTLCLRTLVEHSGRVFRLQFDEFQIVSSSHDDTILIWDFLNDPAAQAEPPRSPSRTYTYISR
T1 sequence (Q13616 whole entry): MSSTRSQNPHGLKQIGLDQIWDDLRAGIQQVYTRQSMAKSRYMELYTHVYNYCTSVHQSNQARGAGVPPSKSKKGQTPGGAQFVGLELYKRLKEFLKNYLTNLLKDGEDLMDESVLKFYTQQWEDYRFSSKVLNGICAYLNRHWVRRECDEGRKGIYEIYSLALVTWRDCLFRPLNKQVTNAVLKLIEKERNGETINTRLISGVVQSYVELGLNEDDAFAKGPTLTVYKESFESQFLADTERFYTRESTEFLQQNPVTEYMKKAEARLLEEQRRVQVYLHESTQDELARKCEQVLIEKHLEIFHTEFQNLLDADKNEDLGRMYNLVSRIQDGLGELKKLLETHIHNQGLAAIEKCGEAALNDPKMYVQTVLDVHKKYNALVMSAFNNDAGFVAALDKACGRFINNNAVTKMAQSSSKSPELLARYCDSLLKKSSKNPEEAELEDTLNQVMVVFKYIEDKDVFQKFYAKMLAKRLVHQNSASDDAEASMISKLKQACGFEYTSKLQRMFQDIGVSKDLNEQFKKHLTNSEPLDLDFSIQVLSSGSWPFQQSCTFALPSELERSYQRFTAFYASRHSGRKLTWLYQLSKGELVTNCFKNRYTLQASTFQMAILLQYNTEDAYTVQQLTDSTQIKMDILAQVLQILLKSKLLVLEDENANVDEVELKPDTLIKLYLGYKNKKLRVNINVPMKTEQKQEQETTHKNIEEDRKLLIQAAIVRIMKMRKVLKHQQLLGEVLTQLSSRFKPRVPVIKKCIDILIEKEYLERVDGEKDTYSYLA
T1 sequence (P63208 whole entry): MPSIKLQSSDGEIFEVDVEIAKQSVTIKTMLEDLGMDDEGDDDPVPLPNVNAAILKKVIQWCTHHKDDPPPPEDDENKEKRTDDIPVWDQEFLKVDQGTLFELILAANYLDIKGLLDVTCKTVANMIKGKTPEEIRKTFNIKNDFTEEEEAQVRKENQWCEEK
T1 sequence (P62877 whole entry): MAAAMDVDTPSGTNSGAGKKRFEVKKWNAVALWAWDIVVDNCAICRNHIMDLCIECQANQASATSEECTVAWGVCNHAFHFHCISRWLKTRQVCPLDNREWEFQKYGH

For `CC1=NN(c2ccc(C(=O)N3CCOCC3)cc2)C(=O)/C1=C\c1ccc2c(c1)OCCO2` [Compound 386], the IC50 is 10 to 20 µM.

For the compound `CC1=NN(c2cccc(C(=O)O)c2)C(=O)/C1=C\c1c(C)nn(C)c1Cl` [Compound 513], the IC50 was under 40 µM.

As for `O=C(O)c1ccc(N2N=C(c3ccoc3)C(=Cc3ccc(N4CCC(O)CC4)s3)C2=O)cc1` [Compound 251], the IC50 was under 40 µM.

Consider `O=C(O)c1ccc(N2N=C(c3cccnc3)C(=Cc3ccc4ccccc4c3)C2=O)cc1` [Compound 345], for which the IC50 lay in the range of 10 to 20 µM.

In the case of `CCOC(=O)c1ccc(COc2ccc(/C=C3\C(=O)N(c4cccc(C(=O)O)c4)N=C3C)cc2OC)o1` [Compound 395], the IC50 is under 40 µM.

`COCC1=NN(c2ccccc2)C(=O)/C1=C\c1ccc2c(c1)OCCO2` [Compound 9]: the IC50 lay in the range of 10 to 20 µM.

Consider `COC(=O)N1CCN(c2ccc(/C=C3\C(=O)N(c4ccccc4)N=C3c3ccncc3)cc2)CC1` [Compound 42], for which the IC50 was under 40 µM.

Take `COc1cc(/C=C2\C(=O)N(c3ccc(C(=O)O)cc3)N=C2c2ccc(OC)c(OC)c2)ccc1O` [Compound 332]: the IC50 lay within 10 to 20 µM.

For the compound `O=C(O)c1ccc(N2N=C(c3ccccn3)/C(=C/c3ccc(N4CCC(O)CC4)s3)C2=O)cc1` [Compound 293], the IC50 is under 40 µM.

Consider `O=C1/C(=C\c2ccc(-c3ccccc3F)o2)C(c2ccoc2)=NN1c1ccccc1` [Compound 15], for which the IC50 is under 10 µM.

As to `O=C(O)c1ccc(N2N=C(c3ccccn3)/C(=C/c3ccc(-n4cccn4)cc3)C2=O)cc1` [Compound 294], the IC50 is under 40 µM.

On to `CC1=NN(c2cccc(C(=O)O)c2)C(=O)/C1=C\c1ccc2c(c1)OCCO2` [Compound 402], for which the IC50 was in the range of 10 to 20 µM.

With `CC1=NN(c2cccc(S(N)(=O)=O)c2)C(=O)/C1=C\c1cccc2cc[nH]c12` [Compound 140], the IC50 is under 10 µM.

Take `CC1=NN(c2cccc(C(=O)N3CCC(CO)CC3)c2)C(=O)/C1=C\c1ccc2[nH]ccc2c1` [Compound 371]: the IC50 is under 10 µM.

Regarding `CC1=NN(c2cccc(S(N)(=O)=O)c2)C(=O)/C1=C\c1c[nH]c2ccc(Cl)cc12` [Compound 147], the IC50 was under 10 µM.

Consider `COC(=O)N1CCN(c2ccc(/C=C3\C(=O)N(c4ccccc4)N=C3c3cccnc3)cc2)CC1` [Compound 62], for which the IC50 was under 40 µM.

Take `CCCCC1=NN(c2ccccc2)C(=O)/C1=C\c1nccs1` [Compound 105]: the IC50 is under 40 µM.

For `CC1=NN(c2cccc(C(=O)O)c2)C(=O)/C1=C\c1cccc2[nH]ccc12` [Compound 355], the IC50 was under 10 µM.

Consider `CC1=NN(c2cccc(S(N)(=O)=O)c2)C(=O)/C1=C\c1ccc(N2CCN(c3ccc(F)cc3)CC2)cc1` [Compound 177], for which the IC50 was 10 to 20 µM.

In the case of `CC1=NN(c2cccc(C(=O)O)c2)C(=O)/C1=C\c1ccc2c(ccn2C)c1` [Compound 493], the IC50 was under 10 µM.

For the compound `CC1=NN(c2cccc(C(=O)O)c2)C(=O)/C1=C\c1ccc2cc[nH]c2c1` [Compound 381], the IC50 is under 10 µM.

In the case of `O=C(O)c1ccc(N2N=C(c3ccoc3)/C(=C/c3ccc4c(c3)OCO4)C2=O)cc1` [Compound 476], the IC50 is under 10 µM.

In the case of `COCC1=NN(c2ccc(C(=O)O)cc2)C(=O)C1=Cc1ccc(N2CCC(O)CC2)s1` [Compound 240], the IC50 is under 40 µM.

As to `COc1cc(/C=C2\C(=O)N(c3cccc(C(=O)O)c3)N=C2C)ccc1OCC1CC1` [Compound 393], the IC50 was 10 to 20 µM.

In the case of `O=C(O)c1ccc(N2N=C(c3cccnc3)/C(=C/c3ccc(-c4ccccc4F)o3)C2=O)cc1` [Compound 339], the IC50 was 10 to 20 µM.

For `COCC1=NN(c2ccccc2)C(=O)/C1=C\c1ccc(CO)o1` [Compound 7], the IC50 was under 40 µM.

Take `COc1ccccc1-c1ccc(/C=C2\C(=O)N(c3cccc(C(=O)O)c3)N=C2C)o1` [Compound 487]: the IC50 is under 40 µM.

Turning to `COCC1=NN(c2ccc(C(=O)O)cc2)C(=O)/C1=C\c1cccc2nccnc12` [Compound 327], the IC50 was under 10 µM.

These data come from patent publication EP1900728A1 (Genecare Research Institute Co., Ltd, priority 2005, dated 2006).
